Experimental findings from paper PMC7655512 (Cell stem cell, 2020) are described below.

In data set [1] the test system is HD.113 hiPSC-CMs treated with ATX-II. In words: High dose ATX-II induced arrhythmia in healthy donor hiPSC-CMs. The format is cell-based, human. The conditions noted are these: ATX-II 1 μM; result in words.
Data set [2] concerns genetic and pharmacological LQT3 hiPSC-CM models. As to the kind of experiment: Optical voltage assay across genetic and pharmacological LQT3 hiPSC-CM models. The format is cell-based, human. The conditions noted are these: for general APD effect at low or high doses: summary over all models, result in words.
The subject of data set [3] is LQT3 SCN5A N406K hiPSC-CMs. In words: Optical voltage assay, second genetic LQT3 model. It counts as cell-based, human. The conditions noted are these: result in words.
Another data set addresses SCN5A L409P/R588 mutant (Homo sapiens, UniProt Q14524, H558R/L409P). In words: Automated planar patch clamp of LQT3 mutant channel in HEK293T cells. The conditions noted are these: for preference of block between INaP and INaL: result in words. It counts as cell-based. (In general: In patch-clamp work, channel activity is measured electrically.)
In another data set the test system is HD.CDI hiPSC-CMs. In words: High throughput optical action potential recording, healthy donor hiPSC-CMs. The conditions noted are these: result in words.

Molecules are shown by their SMILES.

SCN5A L409P/R588 mutant, sequence (Q14524 whole entry L409P/H558R): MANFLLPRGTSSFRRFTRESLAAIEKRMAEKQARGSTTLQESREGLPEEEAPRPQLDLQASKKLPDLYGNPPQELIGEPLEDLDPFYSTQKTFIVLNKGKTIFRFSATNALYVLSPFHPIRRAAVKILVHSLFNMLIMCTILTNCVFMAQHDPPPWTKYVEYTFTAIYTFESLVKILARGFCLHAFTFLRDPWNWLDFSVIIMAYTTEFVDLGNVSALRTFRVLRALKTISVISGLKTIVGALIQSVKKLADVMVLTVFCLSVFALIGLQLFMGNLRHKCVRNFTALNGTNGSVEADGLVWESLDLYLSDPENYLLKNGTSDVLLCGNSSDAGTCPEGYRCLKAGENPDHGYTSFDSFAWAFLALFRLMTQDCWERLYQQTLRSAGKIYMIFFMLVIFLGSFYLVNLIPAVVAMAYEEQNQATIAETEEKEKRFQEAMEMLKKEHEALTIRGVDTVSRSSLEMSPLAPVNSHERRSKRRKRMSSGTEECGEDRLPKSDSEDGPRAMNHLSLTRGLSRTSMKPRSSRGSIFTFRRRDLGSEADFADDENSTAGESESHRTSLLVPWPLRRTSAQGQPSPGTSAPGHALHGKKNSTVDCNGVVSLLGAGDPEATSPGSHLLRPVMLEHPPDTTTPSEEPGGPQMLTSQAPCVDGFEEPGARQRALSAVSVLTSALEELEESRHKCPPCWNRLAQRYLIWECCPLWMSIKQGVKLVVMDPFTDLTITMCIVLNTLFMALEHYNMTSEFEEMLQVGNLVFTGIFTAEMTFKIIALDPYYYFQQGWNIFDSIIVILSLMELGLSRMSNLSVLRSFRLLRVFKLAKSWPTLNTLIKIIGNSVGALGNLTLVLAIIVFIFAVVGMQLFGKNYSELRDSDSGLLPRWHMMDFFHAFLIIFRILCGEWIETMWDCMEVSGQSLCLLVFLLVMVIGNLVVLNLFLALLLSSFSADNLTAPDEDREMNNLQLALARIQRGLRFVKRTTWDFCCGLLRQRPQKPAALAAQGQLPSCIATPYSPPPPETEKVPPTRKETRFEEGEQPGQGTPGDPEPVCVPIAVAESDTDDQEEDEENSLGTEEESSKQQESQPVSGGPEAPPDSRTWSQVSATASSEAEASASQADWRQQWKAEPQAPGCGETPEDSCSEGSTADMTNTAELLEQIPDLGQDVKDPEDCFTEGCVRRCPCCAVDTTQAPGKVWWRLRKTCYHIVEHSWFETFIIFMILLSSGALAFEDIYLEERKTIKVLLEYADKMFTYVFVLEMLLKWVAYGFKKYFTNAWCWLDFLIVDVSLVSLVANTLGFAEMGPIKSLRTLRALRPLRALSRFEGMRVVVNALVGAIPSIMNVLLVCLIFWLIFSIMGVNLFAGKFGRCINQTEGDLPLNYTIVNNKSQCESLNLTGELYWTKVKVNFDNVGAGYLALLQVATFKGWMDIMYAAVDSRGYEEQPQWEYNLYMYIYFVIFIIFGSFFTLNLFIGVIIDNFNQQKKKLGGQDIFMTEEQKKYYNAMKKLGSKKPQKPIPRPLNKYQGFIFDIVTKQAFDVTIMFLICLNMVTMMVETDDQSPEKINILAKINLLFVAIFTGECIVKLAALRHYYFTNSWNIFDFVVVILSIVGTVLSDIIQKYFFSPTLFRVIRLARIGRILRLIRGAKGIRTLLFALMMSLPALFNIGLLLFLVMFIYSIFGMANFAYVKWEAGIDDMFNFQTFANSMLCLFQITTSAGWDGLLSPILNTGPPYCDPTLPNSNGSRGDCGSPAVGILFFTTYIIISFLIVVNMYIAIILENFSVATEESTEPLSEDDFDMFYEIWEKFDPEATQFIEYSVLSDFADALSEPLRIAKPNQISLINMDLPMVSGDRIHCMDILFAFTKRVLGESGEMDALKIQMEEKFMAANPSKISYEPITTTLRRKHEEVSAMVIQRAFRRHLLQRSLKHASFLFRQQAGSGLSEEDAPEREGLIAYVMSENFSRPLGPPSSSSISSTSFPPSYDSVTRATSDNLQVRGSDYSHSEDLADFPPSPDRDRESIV

Turning to `FC(F)(F)Oc1ccc(-c2ccc3nnc(C(F)(F)F)n3c2)cc1` [GS-967], the “suppression of ATX-II induced arrhythmia” value in data set [1] is recorded as “effective”. Also, the “general APD effect at low or high doses” value in data set [2] is on record as “most pronounced shortening at low doses”. In addition, the “suppression of spontaneous arrhythmia” value in data set [3] is “effective”.

For the compound `Cc1ccccc1OCC(N)c1ccccc1` (stereo not shown) [MexA2, 1-Phenyl-2-(o-tolyloxy)ethan-1-amine], the “preference of block between INaP and INaL” value at SCN5A L409P/R588 mutant was “preferentially blocked INaP over INaL”.

As to `Cc1cc(C)cc(OCC(N)c2ccccc2)c1` (stereo not shown) [MexA3], at SCN5A L409P/R588 mutant, the “block of INaL” value is listed as “did not block INaL”; the “preference of block between INaP and INaL” value is listed as “preferentially blocked INaP over INaL”.

Turning to `NC(COc1ccccc1C(F)(F)F)c1ccccc1` (stereo not shown) [MexA4, 1-Phenyl-2-(2-(trifluoromethyl)phenoxy)ethan-1-amine], the “proarrhythmic response (APD prolongation, EADs)” value with HD.CDI hiPSC-CMs is “not proarrhythmic”.

With `COCCNC(COc1cccc(C)c1C)c1ccccc1` (stereo not shown) [MexA5, 2-(2,3-dimethylphenoxy)-N-(2-methoxyethyl)-1-phenylethan-1-amine], the “asystole effect, change with N-ethyl methoxy substitution” value in the data set with HD.CDI hiPSC-CMs (high concentrations) was “decreased this effect”. In data set [2], the “general APD effect at low or high doses” value is on record as “most pronounced shortening at low doses”. The “suppression of spontaneous arrhythmia” value in data set [3] was “terminated spontaneous arrhythmias”.

In the case of `Cc1cccc(C)c1OCC(C)N` (stereo not shown) [mexiletine, Mexiletine], the “proarrhythmic response (APD prolongation, EADs)” value in the data set with HD.CDI hiPSC-CMs is “proarrhythmic response”. In data set [2], the “APD change across LQT3 hiPSC-CM models” value is reported as “substantially prolonged the AP in all hiPSC-CMs examined”, the “APD shortening in pharmacological LQT3 models” value was “not in all the pharmacological models” and the “general APD effect at low or high doses” value is “prolonged the APD at high doses”. Moreover, the APD change entry in data set [3] was “weakly”.

As to `COc1ccccc1OCC(O)CN1CCN(CC(=O)Nc2c(C)cccc2C)CC1` (stereo not shown) [ranolazine], the “suppression of ATX-II induced arrhythmia” value in data set [1] was “blocked arrhythmia only in the genetic LQT3 model”. Also, the “general APD effect at low or high doses” value in data set [2] was “prolonged the APD at high doses”. In addition, in data set [3], the APD change entry is “did not shorten APD and induced EADs at high doses”; the “suppression of spontaneous arrhythmia” value is “blocked arrhythmia only in the genetic LQT3 model”.
